ChEMBL document CHEMBL1201862, “PubChem BioAssay data set” (2004)
Calls of active or inactive are those of the source.

Assays:
[1] = molecular target: Sentrin-specific protease 1 (Homo sapiens, UniProt Q9P0U3); assay: Dose response confirmation of small molecule inhibitors of the catalytic domain of the SUMO protease, SENP1 in a FRET assay.; assay type: functional; conditions: read-out: IC50_Mean
[2] = molecular target: Genome polyprotein (dengue virus type 2, UniProt P29990); assay: Dengue-2 NS5 methyltransferase inhibitors, primary screen, biochemical, confirmation dose response (AID 588689); assay type: functional
Genome polyprotein, sequence (P29990 2492-3391 limits assumed): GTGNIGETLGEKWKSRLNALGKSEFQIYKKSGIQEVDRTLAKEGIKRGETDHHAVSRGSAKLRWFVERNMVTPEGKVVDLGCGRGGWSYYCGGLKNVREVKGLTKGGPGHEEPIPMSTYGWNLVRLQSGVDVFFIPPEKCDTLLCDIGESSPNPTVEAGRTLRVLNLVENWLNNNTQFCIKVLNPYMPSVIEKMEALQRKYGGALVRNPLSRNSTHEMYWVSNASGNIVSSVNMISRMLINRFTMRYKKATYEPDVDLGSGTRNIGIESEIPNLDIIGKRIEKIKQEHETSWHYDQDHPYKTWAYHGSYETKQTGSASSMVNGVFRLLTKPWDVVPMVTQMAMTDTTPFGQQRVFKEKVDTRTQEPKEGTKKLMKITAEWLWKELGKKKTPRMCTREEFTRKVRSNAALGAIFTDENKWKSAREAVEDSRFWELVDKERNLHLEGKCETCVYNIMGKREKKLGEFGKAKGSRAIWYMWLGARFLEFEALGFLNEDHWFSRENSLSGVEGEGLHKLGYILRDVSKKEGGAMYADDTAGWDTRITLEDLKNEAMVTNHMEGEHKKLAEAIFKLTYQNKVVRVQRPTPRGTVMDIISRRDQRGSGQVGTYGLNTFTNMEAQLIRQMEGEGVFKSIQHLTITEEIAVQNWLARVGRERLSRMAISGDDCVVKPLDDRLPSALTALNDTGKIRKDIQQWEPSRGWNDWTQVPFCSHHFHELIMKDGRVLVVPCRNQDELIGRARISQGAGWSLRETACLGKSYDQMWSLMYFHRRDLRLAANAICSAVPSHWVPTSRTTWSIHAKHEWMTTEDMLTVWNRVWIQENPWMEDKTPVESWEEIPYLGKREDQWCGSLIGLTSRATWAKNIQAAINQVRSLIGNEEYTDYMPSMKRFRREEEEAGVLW

[3] = molecular target: T1, Small ubiquitin-related modifier 2 (Homo sapiens, UniProt P61956); assay: SUMO2–SIM peptide binding inhibitors, dose response, selectivity assay for SUMO1 interaction inhibitor project, biochemical, fluorescence polarization, uHTS hits (AID 624385); assay type: functional; conditions: read-out: IC50_Mean
T1 sequence (P61956 whole entry): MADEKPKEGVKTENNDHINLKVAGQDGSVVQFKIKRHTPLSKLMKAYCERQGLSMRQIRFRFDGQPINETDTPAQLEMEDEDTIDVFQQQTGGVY

[4] = molecular target: T2, Small ubiquitin-related modifier 1 (Homo sapiens, UniProt P63165); assay: inhibitors of SUMO1 peptide binding, dose response, biochemical, fluorescence polarization, uHTS hits (AID 624382); assay type: functional; conditions: read-out: IC50_Mean
T2 sequence (P63165 whole entry): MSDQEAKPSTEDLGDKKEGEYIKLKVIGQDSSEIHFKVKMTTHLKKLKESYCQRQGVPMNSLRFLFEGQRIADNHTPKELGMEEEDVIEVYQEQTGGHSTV

[5] = molecular target: T1, Small ubiquitin-related modifier 2; assay: inhibitors of SUMO2 protein-protein interaction, dose response, selectivity assay for SUMO1 interaction inhibitor project, biochemical, FRET, human SUMO2, uHTS hits (AID 624384); assay type: functional; conditions: read-out: IC50_Mean
[6] = molecular target: T2, Small ubiquitin-related modifier 1; assay: inhibitors of SUMO1 partner interactions, dose response, biochemical, FRET (AID 624383); assay type: functional; conditions: read-out: IC50_Mean
[7] = molecular target: T3, Rac GTPase-activating protein 1 (Homo sapiens, UniProt Q9H0H5); assay: MgcRacGAP GTPase-activating activity inhibitors, confirmation, biochemical, ADP Hunter fluorescence, primary and confirmatory (AID 624330); assay type: functional
T3 sequence (Q9H0H5 whole entry): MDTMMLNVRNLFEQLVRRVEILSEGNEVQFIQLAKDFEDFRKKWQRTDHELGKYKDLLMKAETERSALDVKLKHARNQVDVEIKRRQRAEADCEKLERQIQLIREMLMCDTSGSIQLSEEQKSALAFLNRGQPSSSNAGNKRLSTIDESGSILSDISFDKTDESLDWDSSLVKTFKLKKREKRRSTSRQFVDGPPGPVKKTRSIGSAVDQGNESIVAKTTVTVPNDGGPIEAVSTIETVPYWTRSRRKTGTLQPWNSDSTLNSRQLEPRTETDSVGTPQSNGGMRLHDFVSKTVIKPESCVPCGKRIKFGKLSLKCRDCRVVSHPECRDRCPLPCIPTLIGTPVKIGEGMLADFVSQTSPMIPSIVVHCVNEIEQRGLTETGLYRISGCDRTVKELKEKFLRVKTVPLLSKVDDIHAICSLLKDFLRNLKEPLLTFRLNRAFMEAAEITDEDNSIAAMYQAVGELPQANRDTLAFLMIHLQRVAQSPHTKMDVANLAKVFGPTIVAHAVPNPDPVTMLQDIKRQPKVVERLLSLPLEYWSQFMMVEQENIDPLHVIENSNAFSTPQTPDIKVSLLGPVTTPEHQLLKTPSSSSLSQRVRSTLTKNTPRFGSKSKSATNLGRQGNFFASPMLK

[8] = molecular target: T4, Replicative DNA helicase DnaB (Mycobacterium tuberculosis, UniProt P9WMR3); assay: DnaB intein splicing inhibitors, dose response, biochemical, cell-free fluorescence (AID 449749); assay type: functional
T4 sequence (P9WMR3 whole entry): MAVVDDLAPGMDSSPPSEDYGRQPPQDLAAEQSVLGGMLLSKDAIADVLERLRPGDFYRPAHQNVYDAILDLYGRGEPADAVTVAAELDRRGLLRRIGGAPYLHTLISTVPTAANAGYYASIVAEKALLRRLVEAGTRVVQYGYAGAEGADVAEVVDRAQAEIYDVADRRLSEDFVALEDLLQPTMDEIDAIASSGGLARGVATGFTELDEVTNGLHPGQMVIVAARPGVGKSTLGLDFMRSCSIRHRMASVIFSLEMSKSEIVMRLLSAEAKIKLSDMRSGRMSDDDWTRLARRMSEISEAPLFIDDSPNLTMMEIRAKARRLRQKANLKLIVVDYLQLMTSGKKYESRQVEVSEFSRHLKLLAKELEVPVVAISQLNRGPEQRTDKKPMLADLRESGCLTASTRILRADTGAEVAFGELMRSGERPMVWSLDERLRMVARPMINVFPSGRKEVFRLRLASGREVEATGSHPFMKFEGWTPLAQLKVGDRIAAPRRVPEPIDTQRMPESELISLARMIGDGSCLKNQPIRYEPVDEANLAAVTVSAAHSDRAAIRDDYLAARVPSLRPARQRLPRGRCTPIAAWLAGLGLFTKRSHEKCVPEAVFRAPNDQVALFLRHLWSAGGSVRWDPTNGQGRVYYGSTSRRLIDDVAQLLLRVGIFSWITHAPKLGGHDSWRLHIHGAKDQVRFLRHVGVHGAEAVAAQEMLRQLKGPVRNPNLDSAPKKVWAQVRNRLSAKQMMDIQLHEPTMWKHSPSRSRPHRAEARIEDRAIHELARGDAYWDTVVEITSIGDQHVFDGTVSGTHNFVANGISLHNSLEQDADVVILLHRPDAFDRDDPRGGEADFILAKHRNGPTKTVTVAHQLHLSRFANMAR

[9] = molecular target: T5, Apoptotic protease-activating factor 1 (Homo sapiens, UniProt O14727); assay type: functional
T5 sequence (O14727 whole entry): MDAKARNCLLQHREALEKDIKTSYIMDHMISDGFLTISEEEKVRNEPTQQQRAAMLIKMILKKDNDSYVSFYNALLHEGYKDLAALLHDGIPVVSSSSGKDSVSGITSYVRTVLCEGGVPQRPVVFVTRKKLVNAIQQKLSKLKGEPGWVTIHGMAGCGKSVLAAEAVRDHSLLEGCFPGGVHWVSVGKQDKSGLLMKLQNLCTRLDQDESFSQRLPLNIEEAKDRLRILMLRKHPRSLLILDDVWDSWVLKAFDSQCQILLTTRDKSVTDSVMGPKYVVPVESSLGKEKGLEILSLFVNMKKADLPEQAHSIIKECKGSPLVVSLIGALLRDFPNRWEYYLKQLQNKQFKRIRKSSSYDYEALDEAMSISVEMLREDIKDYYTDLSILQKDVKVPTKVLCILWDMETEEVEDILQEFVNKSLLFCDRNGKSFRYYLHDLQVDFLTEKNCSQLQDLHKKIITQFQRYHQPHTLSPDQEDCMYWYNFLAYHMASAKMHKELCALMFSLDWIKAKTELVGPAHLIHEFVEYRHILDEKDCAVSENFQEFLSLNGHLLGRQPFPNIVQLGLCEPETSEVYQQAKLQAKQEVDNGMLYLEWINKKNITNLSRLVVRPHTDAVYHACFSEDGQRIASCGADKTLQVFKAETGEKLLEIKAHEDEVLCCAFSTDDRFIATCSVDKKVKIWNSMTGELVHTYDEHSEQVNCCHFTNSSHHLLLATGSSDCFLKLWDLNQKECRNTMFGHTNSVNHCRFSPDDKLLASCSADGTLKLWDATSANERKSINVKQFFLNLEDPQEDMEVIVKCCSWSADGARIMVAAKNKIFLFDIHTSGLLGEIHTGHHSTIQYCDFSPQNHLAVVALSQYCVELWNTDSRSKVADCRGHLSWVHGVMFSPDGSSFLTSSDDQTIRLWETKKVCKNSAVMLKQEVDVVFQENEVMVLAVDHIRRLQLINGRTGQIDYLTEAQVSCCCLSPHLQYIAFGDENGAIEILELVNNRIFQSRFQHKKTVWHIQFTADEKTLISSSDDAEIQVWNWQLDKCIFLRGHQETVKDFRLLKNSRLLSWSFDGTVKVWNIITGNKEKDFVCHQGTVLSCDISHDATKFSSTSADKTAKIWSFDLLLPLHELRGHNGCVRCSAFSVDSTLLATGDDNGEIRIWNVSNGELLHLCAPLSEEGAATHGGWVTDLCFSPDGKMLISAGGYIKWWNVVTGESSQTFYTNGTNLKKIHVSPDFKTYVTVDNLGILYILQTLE

[10] = molecular target: T6, Protein RecA (Mycobacterium tuberculosis, UniProt P9WHJ3); assay: Fluorescence Cell-Free Homogeneous Dose Retest to Identify Inhibitors of RecA-Intein Splicing Activity. [Related pubchem assays (depositor defined):AID2097, AID2223, AID489010, AID492950]; assay type: functional
T6 sequence (P9WHJ3 whole entry): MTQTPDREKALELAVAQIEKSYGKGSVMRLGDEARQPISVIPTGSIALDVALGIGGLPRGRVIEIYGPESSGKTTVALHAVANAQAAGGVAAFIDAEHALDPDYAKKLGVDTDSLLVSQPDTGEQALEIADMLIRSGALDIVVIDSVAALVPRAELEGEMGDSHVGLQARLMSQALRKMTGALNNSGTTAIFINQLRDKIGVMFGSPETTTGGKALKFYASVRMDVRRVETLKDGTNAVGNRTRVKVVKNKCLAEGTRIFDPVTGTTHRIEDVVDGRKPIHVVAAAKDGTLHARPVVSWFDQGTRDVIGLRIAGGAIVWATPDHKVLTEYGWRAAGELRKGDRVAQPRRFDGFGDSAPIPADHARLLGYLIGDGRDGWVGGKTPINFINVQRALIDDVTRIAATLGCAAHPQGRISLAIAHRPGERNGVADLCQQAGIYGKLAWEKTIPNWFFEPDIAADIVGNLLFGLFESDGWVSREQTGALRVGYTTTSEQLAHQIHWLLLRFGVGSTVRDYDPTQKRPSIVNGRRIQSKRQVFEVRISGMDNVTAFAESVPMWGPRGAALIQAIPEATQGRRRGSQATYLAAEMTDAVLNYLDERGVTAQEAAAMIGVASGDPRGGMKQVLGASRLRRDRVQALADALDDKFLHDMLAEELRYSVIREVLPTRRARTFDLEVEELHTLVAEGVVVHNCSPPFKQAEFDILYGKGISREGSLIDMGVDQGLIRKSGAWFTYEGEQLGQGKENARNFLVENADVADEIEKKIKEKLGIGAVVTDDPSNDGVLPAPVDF

[11] = molecular target: Arf-GAP with SH3 domain, ANK repeat and PH domain-containing protein 1 (Homo sapiens, UniProt Q9ULH1); assay type: functional;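 further: biochemical fluorescence polarization dose–response screen measuring inhibition of ASAP1; ASAP1 GAP domain stimulating GTP hydrolysis by truncated human ARF1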
Arf-GAP with SH3 domain, ANK repeat and PH domain-containing protein 1, sequence (Q9ULH1 whole entry, the tested form may be a part): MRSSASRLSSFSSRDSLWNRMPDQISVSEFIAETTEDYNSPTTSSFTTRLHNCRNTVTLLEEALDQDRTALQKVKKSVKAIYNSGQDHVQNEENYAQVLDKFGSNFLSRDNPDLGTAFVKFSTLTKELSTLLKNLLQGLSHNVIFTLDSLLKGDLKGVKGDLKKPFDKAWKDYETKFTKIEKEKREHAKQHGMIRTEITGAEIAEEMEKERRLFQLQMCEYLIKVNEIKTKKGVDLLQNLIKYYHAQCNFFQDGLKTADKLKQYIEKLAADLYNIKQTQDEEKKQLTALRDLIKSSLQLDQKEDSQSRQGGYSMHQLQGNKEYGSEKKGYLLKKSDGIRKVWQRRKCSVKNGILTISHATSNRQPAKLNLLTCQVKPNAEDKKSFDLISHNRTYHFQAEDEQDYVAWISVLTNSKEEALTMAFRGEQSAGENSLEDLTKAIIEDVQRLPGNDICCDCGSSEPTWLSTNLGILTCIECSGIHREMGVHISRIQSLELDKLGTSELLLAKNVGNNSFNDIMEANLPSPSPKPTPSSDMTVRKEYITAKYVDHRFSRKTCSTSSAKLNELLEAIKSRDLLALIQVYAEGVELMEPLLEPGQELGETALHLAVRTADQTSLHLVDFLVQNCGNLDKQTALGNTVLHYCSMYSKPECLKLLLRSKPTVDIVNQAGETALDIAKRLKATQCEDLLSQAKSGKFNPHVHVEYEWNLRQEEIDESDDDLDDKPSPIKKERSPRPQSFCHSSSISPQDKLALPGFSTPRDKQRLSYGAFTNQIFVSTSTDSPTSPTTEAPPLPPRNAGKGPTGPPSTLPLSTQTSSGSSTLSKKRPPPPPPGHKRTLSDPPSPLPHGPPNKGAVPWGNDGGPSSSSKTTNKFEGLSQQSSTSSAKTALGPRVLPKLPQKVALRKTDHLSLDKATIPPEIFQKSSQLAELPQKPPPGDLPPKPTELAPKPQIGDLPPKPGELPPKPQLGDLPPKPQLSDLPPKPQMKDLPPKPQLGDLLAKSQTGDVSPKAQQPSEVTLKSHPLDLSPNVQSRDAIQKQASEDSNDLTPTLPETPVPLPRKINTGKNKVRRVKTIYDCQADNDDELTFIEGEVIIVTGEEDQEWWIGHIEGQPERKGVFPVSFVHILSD

[12] = molecular target: T7, Tyrosyl-DNA phosphodiesterase 2 (Homo sapiens, UniProt O95551); assay: human TDP2 enzyme inhibitors, dose response, biochemical, epi absorbance, IC50 (AID 743297)
T7 sequence (O95551 whole entry): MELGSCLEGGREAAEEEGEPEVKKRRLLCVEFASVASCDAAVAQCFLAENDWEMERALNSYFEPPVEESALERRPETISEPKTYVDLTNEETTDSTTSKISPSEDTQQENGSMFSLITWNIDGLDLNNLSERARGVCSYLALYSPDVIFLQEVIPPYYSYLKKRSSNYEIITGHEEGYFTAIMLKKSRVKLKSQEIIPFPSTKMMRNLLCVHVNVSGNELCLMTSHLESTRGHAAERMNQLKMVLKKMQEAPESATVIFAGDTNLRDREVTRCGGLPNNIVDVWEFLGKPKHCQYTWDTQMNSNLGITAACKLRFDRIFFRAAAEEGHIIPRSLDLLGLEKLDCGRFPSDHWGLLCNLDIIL

[13] = molecular target: Carboxy-terminal domain RNA polymerase II polypeptide A small phosphatase 1 (Homo sapiens, UniProt Q9GZU7); assay: inhibitors of CTDSP1, concentration-response testing, biochemical assay, absorbance-based, actives from ultra-high-throughput screening (AID 540297); assay type: functional
Carboxy-terminal domain RNA polymerase II polypeptide A small phosphatase 1, sequence (Q9GZU7 whole entry, the tested form may be a part): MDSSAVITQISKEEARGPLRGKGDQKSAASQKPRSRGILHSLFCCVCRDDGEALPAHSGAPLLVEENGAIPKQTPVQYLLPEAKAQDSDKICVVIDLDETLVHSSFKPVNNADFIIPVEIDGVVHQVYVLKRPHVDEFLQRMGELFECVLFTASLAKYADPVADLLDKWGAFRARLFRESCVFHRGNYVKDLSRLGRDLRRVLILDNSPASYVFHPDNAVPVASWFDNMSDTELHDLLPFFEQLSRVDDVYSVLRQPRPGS

[14] = molecular target: T8, Probable nicotinate-nucleotide adenylyltransferase (Staphylococcus aureus (strain N315), UniProt P65502); assay type: functional, Staphylococcus aureus subsp. aureus N315;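 on IC50 Mean: confirmatory dose-response retesting of NadD inhibitor hits first found in an ultra-high-throughput screen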
T8 sequence (P65502 whole entry): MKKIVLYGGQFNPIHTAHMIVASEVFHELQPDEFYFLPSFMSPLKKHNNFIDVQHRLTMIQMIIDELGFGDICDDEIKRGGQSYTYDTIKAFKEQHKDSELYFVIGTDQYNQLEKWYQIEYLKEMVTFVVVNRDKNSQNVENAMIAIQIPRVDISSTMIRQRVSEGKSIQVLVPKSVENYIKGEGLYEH

[15] = molecular target: T8, Probable nicotinate-nucleotide adenylyltransferase; assay type: functional, Staphylococcus aureus subsp. aureus N315; conditions: read-out: IC50_Mean
[16] = Inhibition of T. cruzi Tulahuen strain amastigotes in L-6 muscle cells Measured in Cell-Based and Microorganism Combination System Using Plate Reader - 2138-03_Inhibitor_Dose_CherryPick_Activity.; assay type: functional; conditions: Rattus norvegicus, L6
[17] = cytotoxicity in L-6 rat myocytes, dose response, cytotoxicity control, cell-based, plate reader, cherry-pick (AID 651896); assay type: functional
[18] = Inhibition of Plasmodium falciparum NF54 Measured in Cell-Based System Using Plate Reader - 2138-11_Inhibitor_Dose_CherryPick_Activity.; assay type: functional
[19] = L. donovani amastigote growth inhibition, dose response, axenic amastigotes, plate reader, cherry pick (AID 651891); assay type: functional, cell-based; conditions: Leishmania donovani
[20] = intracellular Trypanosoma cruzi inhibitors in host cells – cell-based, plate reader, cherry-pick samples, set 3, dose response (AID 651818); assay type: functional;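 further: compounds incubated with infected cells for about four days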
[21] = T. b. rhodesiense proliferation inhibition, dose response, STIB900 strain, plate reader, cherry pick (AID 651893); assay type: functional, cell-based; conditions: Trypanosoma brucei
[22] = NIH/3T3 fibroblast cytotoxicity, dose response, cytotoxicity control for T. cruzi growth inhibitor project, cell-based, cherry-pick samples, set 2 (AID 651817); assay type: functional; conditions: NIH3T3

Sentrin-specific protease 1, sequence (Q9P0U3 whole entry, the tested form may be a part): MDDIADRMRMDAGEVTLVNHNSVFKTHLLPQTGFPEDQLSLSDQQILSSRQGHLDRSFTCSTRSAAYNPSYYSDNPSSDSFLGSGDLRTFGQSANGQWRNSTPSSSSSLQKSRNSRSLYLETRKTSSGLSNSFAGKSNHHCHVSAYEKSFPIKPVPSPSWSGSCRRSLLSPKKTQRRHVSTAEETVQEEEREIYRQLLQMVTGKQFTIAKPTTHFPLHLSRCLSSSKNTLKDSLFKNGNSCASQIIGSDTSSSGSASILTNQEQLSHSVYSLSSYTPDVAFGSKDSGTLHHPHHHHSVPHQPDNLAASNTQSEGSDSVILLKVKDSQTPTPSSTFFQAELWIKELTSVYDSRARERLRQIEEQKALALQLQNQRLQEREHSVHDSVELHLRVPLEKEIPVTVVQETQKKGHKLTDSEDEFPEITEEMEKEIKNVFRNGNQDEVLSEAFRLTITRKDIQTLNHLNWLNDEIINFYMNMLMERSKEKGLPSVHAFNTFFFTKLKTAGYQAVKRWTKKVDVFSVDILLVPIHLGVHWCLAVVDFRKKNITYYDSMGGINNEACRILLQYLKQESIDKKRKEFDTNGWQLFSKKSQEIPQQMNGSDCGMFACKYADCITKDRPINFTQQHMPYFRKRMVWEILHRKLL

## Cc1nc2ccc(NS(=O)(=O)c3ccc(F)cc3F)cc2s1
[1]
  IC50: 18.4 µM (active)

## CCCCCC(=O)Nc1cc(S(=O)(=O)O)cc2cc(S(=O)(=O)O)cc(O)c12
[2]
  IC50: 30 µM (active)
[3]
  IC50: 6.81 µM (active)
[4]
  IC50: 19.2 µM (active)
[5]
  IC50: 0.92 µM (active)
[6]
  IC50: 2.29 µM (active)
[7]
  IC50: 31.7 µM (active)

## COc1ccccc1Nc1cc2cc(Br)ccc2c(=O)[nH]1
[8]
  AC50: > 120 µM (inactive)
[9]
  IC50: 1.51 µM (active)
[10]
  EC50: 23.3 µM (active)
[11]
  IC50: 165 µM (inactive)
[12]
  IC50: 10.7 µM (inactive)

## CC1CCCCC1NC(=O)COC(=O)c1c2c(nc3ccccc13)/C(=C\c1ccco1)CC2 (configuration not stated)
[13]
  IC50: 5.27 µM (active)
[14]
  IC50: 6.81 µM (active)
[15]
  IC50: 14.6 µM (active)

## COc1ccc(CN(C)C[C@@H]2Oc3c(NC(=O)c4ccncc4)cccc3C(=O)N([C@H](C)CO)C[C@H]2C)cc1
[16]
  IC50: 5.91 µM (inactive)
[17]
  IC50: > 100 µM (inactive)
[18]
  IC50: 5.91 µM (inactive)
[19]
  IC50: > 100 µM (inactive)
[20]
  AC50: 0.361 µM (active)
[21]
  IC50: 2.62 µM (inactive)

## C[C@@H]1CN([C@@H](C)CO)C(=O)Cc2cc(NS(=O)(=O)c3ccc(F)cc3)ccc2O[C@@H]1CN(C)Cc1ccc(Cl)c(Cl)c1
[22]
  AC50: 11 µM (active)
